Columns and labels:
[1] = tested on: Colletotrichum gloeosporioides; test: Kirby-Bauer disk diffusion test, Colletotrichum gloeosporioides
Description: (§1) The microbiological tests were carried out by applying Kirby-Bauer Disk Diffusion Susceptibility Test Protocol for antimicrobial activity. It is based on the formation of a concentration gradient in the growth medium during the diffusion of the active substance from the antibiogram disc (Kirby-Bauer method).
(§2) The performance of the embodiments of the present inventions and their mixtures enriched with millbase (MFA) was analysed against the appropriate reference substance, i.e., a commercial product containing the analogue active substance with the same concentration. The prepared solutions were applied on the paper antibiograms. Then the soaked antibiograms were placed on the Petri Dishes (dish diameter 90 mm) with the growth medium for fungal pathogens V8. Composition of V8: agar, calcium carbonate and multi-vegetable juice. 3 fragments of mycelium of the tested pathogen (5×5 mm) were transplanted onto the prepared medium. As a result, the zones where the fungal growth was inhibited have been measured and compared respectively with the control sample and the analogue active substance sample.
(§3) Assessment was carried out by determining the infested area of the Petri dish in %. These percentages have been converted into efficacy (W) according to Abbot's formula as follows: W=(1−α/β)×100 • where: • α—corresponds to the mycelium/bacterial growth of each tested sample [%], • β—corresponds to the mycelium/bacterial growth in control sample [%].
(§4) In order to estimate if the combined action effect with the commercial fungicide, the W parameter of the mixture was compared with W parameter for particular commercial fungicide solo. Where W=0 the efficacy of the control sample (whole Petri dish covered with mycelium), and W=100 is when no mycelium growth observed.

Fusarium oxysporum = test: Kirby-Bauer disk diffusion test, Fusarium oxysporum
Description: as §1, §2, §3, §4

Phytophthora megasperma = test: Kirby-Bauer disk diffusion test, Phytophthora megasperma; conditions: for EFFICACY W (Abbot): control W=0, no growth W=100
Description: as §1, §2, §3, §4

Venturia inaegualis = test: Kirby-Bauer disk diffusion test, Venturia inaequalis; conditions: Venturia inaegualis
Description: as §1, §2, §3, §4

[2] = tested on: Alternaria infectoria/alternata; test: Kirby-Bauer disk diffusion test, Alternaria infectoria/alternata
Description: as §2, §3, §4

Sclerotinia sclerotiorum = test: Kirby-Bauer disk diffusion test, Sclerotinia sclerotiorum
Description: as §2, §3, §4

Septoria tritici = test: Kirby-Bauer disk diffusion test, Septoria tritici
Description: as §2, §3, §4

Septoria nodorum (1291) = test: Kirby-Bauer disk diffusion test, Septoria nodorum (1291)
Description: as §2, §3, §4

Botrytis cinerea = test: Kirby-Bauer disk diffusion test, Botrytis cinerea
Description: as §2, §3, §4

Rhizoctonia solani = test: Kirby-Bauer disk diffusion test, Rhizoctonia solani
Description: as §2, §3, §4

Fusarium equiseti = test: Kirby-Bauer disk diffusion test, Fusarium equiseti
Description: as §2, §3, §4

Phytophthora cactorum = test: Kirby-Bauer disk diffusion test, Phytophthora cactorum; design: % mycelium growth relative to the control: concentration or dose not given beside the values; conditions: for % mycelium growth relative to the control / mycelium growth: V8 medium; for mycelium growth: control 5.4 cm; for EFFICACY W (Abbot): control W=0, no growth W=100
Description: as §2, §3, §4

Monilinia fructigena = test: Kirby-Bauer disk diffusion test, Monilinia fructigena
Description: as §2, §3, §4

Verticillium longisporum = test: Kirby-Bauer disk diffusion test, Verticillium longisporum
Description: as §2, §3, §4

Phytium ultimum = test: Kirby-Bauer disk diffusion test, Phytium ultimum
Description: as §2, §3, §4

Trichoderma harzianum = test: Kirby-Bauer disk diffusion test, Trichoderma harzianum
Description: as §2, §3, §4

[3] = Phytophthora megasperma, V8 medium
[4] = Phytophthora megasperma, V8 medium, control 5.4 cm (8.6 cm in Table 25)

SMILES: c1ccc2[nH]c(-c3cscn3)nc2c1 [Thiabendazole, thiabendazole, reference compound]
- activity at 500000 µg/mL ([1]; Colletotrichum gloeosporioides, thiabendazole 500 g/L, read-out: % mycelium growth relative to the control): 0%
- inhibition of growth at 500000 µg/mL ([1]; Colletotrichum gloeosporioides, thiabendazole 500 g/L, read-out: EFFICACY W (Abbot)): 100%
- mycelium growth ([1]; thiabendazole 500 g/L): 0 cm
- activity at 500000 µg/mL (Fusarium oxysporum; Fusarium oxysporum, thiabendazole 500 g/L, read-out: % mycelium growth relative to the control): 84%
- inhibition of growth at 500000 µg/mL (Fusarium oxysporum; Fusarium oxysporum, thiabendazole 500 g/L, read-out: EFFICACY W (Abbot)): 16%
- mycelium growth (Fusarium oxysporum; thiabendazole 500 g/L): 7.2 cm
- activity at 500000 µg/mL (Phytophthora megasperma; Phytophthora megasperma, thiabendazole 500 g/L, read-out: % mycelium growth relative to the control): 48%
- inhibition of growth at 500000 µg/mL (Phytophthora megasperma; Phytophthora megasperma, thiabendazole 500 g/L, read-out: EFFICACY W (Abbot)): 52%
- mycelium growth (Phytophthora megasperma; thiabendazole 500 g/L): 2.6 cm

SMILES: N#Cc1c[nH]cc1-c1cccc2c1OC(F)(F)O2 [Fludioxonil (250)]
- % mycelium growth relative to the control ([1]; Colletotrichum gloeosporioides, V8 medium): 81%
- mycelium growth ([1]; Colletotrichum gloeosporioides, V8 medium, control 5.4 cm): 4.4 cm
- EFFICACY W (Abbot) ([1]; Colletotrichum gloeosporioides, control W=0, no growth W=100): 19
- % mycelium growth relative to the control (Fusarium oxysporum; Fusarium oxysporum, V8 medium): 86%
- mycelium growth (Fusarium oxysporum; Fusarium oxysporum, V8 medium, control 8.6 cm): 7.4 cm
- EFFICACY W (Abbot) (Fusarium oxysporum; Fusarium oxysporum, control W=0, no growth W=100): 14
- % mycelium growth relative to the control (Phytophthora megasperma; [3]): 100%
- mycelium growth (Phytophthora megasperma; [4]): 5.4 cm
- EFFICACY W (Abbot) (Phytophthora megasperma; Phytophthora megasperma): 0
- % mycelium growth relative to the control (Venturia inaegualis; V8 medium): 38%
- mycelium growth (Venturia inaegualis; V8 medium, control 2.9 cm): 1.1 cm
- EFFICACY W (Abbot) (Venturia inaegualis; control W=0, no growth W=100): 62
- % mycelium growth relative to the control ([2]; V8 medium): 0%
- mycelium growth ([2]; V8 medium, control 8.6 cm): 0 cm
- EFFICACY W (Abbot) ([2]; control W=0, no growth W=100): 100
- % mycelium growth relative to the control (Sclerotinia sclerotiorum; V8 medium): 0%
- mycelium growth (Sclerotinia sclerotiorum; V8 medium, control 8.6 cm): 0 cm
- EFFICACY W (Abbot) (Sclerotinia sclerotiorum; control W=0, no growth W=100): 100
- % mycelium growth relative to the control (Septoria tritici; V8 medium): 42%
- mycelium growth (Septoria tritici; V8 medium, control 1.9 cm): 0.8 cm
- EFFICACY W (Abbot) (Septoria tritici; control W=0, no growth W=100): 58
- % mycelium growth relative to the control (Septoria nodorum (1291); V8 medium): 72%
- mycelium growth (Septoria nodorum (1291); V8 medium, control 5.4 cm): 3.9 cm
- EFFICACY W (Abbot) (Septoria nodorum (1291); control W=0, no growth W=100): 28
- % mycelium growth relative to the control (Botrytis cinerea; V8 medium): 0%
- mycelium growth (Botrytis cinerea; V8 medium, control 8.6 cm): 0 cm
- EFFICACY W (Abbot) (Botrytis cinerea; control W=0, no growth W=100): 100
- % mycelium growth relative to the control (Rhizoctonia solani; V8 medium): 55%
- mycelium growth (Rhizoctonia solani; V8 medium, control 8.6 cm): 4.7 cm
- EFFICACY W (Abbot) (Rhizoctonia solani; control W=0, no growth W=100): 45
- % mycelium growth relative to the control (Fusarium equiseti; V8 medium): 81%
- mycelium growth (Fusarium equiseti; V8 medium, control 8.6 cm): 7 cm
- EFFICACY W (Abbot) (Fusarium equiseti; control W=0, no growth W=100): 19
- % mycelium growth relative to the control (Fusarium graminearum; V8 medium): 73%
- mycelium growth (Fusarium graminearum; V8 medium, control 8.6 cm): 6.3 cm
- EFFICACY W (Abbot) (Fusarium graminearum; control W=0, no growth W=100): 27
- % mycelium growth relative to the control (Phytophthora cactorum): 100%
- mycelium growth (Phytophthora cactorum): 5.4 cm
- EFFICACY W (Abbot) (Phytophthora cactorum): 0
- % mycelium growth relative to the control (Monilinia fructigena; V8 medium): 61%
- mycelium growth (Monilinia fructigena; V8 medium, control 5.4 cm): 3.3 cm
- EFFICACY W (Abbot) (Monilinia fructigena; control W=0, no growth W=100): 39
- % mycelium growth relative to the control (Verticillium longisporum; V8 medium): 87%
- mycelium growth (Verticillium longisporum; V8 medium, control 3.9 cm): 3.4 cm
- EFFICACY W (Abbot) (Verticillium longisporum; control W=0, no growth W=100): 13

SMILES: Cc1ccc(-c2c(Cl)nc(C#N)n2S(=O)(=O)N(C)C)cc1 [Cyazofamid (80)]
- % mycelium growth relative to the control (Phytophthora megasperma; [3]): 100%
- mycelium growth (Phytophthora megasperma; [4]): 5.4 cm
- EFFICACY W (Abbot) (Phytophthora megasperma; Phytophthora megasperma): 0
- % mycelium growth relative to the control (Phytophthora cactorum): 63%
- mycelium growth (Phytophthora cactorum): 3.4 cm
- EFFICACY W (Abbot) (Phytophthora cactorum): 37
- % mycelium growth relative to the control (Phytium ultimum; V8 medium): 66%
- mycelium growth (Phytium ultimum; V8 medium, control 8.6 cm): 5.7 cm
- EFFICACY W (Abbot) (Phytium ultimum; control W=0, no growth W=100): 76

SMILES: COc1cc(C)c(C(=O)c2c(OC)ccc(Br)c2C)c(OC)c1OC [Metrafenone (150)]
- % mycelium growth relative to the control (Trichoderma harzianum; V8 medium): 80%
- mycelium growth (Trichoderma harzianum; V8 medium, control 8.6 cm): 6.9 cm
- EFFICACY W (Abbot) (Trichoderma harzianum; control W=0, no growth W=100): 20

From US20260344673A1, “A SOLID FORM FOR PREPARATION OF AN AQUEOUS DISPERSION, AQUEOUS DISPERSION, STABLE CONCENTRATE, COMBINED AQUEOUS DISPERSION, AND USES THEREOF” (priority 2022, published 2026)
